Laboratory results reported in PubChem BioAssay AID330 (DTP/NCI, 2004).
Several values for one entry are separate records, joined by “and”; a condition that tells them apart may be missing. Equal values may be shown once. Inconclusive results and toxic doses are left out.

System: P388 leukemia ip, CD2F1 mice, survival T/C
Test: NCI In Vivo Anticancer Drug Screen. Data for tumor model P388 Leukemia (intraperitoneal) in CD2F1 (CDF1) mice
Details: endpoint: median survival time, higher = longer survival
Summary of the method: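 Mice carrying the transplanted tumor received test compound or vehicle. Survival was recorded in each group, and the value is the treated-group measurement divided by that of the vehicle-treated control group.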

In the case of `O=C1c2c(O)ccc(O)c2C(=O)c2c(NCCNCCO)ccc(NCCNCCO)c21`, the T/C (dose: 0.02 mg/kg/injection, schedule: Q04DX003 (ip), vehicle: saline) was 120 % of control, the T/C (dose: 0.06 mg/kg/injection, schedule: Q01DX009 (ip), vehicle: saline) was 175 % of control and 208 % of control and the T/C (dose: 0.06 mg/kg/injection, schedule: Q04DX003 (ip), vehicle: saline) was 218 % of control. The T/C (dose: 0.12 mg/kg/injection, schedule: Q01DX009 (ip), vehicle: acid diluted with saline) was 179 % of control and 190 % of control, the T/C (dose: 0.12 mg/kg/injection, schedule: Q01DX009 (ip), vehicle: other) was 165 % of control and the T/C (dose: 0.12 mg/kg/injection, schedule: Q01DX009 (ip), vehicle: saline) was 200 % of control and 220 % of control. The T/C (dose: 0.12 mg/kg/injection, schedule: Q04DX003 (ip), vehicle: saline) was 160 % of control, the T/C (dose: 0.13 mg/kg/injection, schedule: Q01DX009 (ip), vehicle: acid diluted with saline) was 150 % of control and 176 % of control and the T/C (dose: 0.2 mg/kg/injection, schedule: Q01DX009 (ip), vehicle: acid diluted with saline) was 250 % of control. The T/C (dose: 0.2 mg/kg/injection, schedule: Q01DX009 (ip), vehicle: water) was 172 % of control, the T/C (dose: 0.25 mg/kg/injection, schedule: Q01DX005 (ip), vehicle: acid diluted with saline) was 270 % of control and the T/C (dose: 0.25 mg/kg/injection, schedule: Q04DX003 (ip), vehicle: saline) was 182 % of control. For the same molecule, the T/C (dose: 0.32 mg/kg/injection, schedule: Q01DX009 (ip), vehicle: acid diluted with saline) was 225 % of control, the T/C (dose: 0.32 mg/kg/injection, schedule: Q01DX009 (sc), vehicle: acid diluted with saline) was 122 % of control and the T/C (dose: 0.39 mg/kg/injection, schedule: Q01DX009 (ip), vehicle: acid diluted with saline) was 272 % of control. For the same molecule, the T/C (dose: 0.39 mg/kg/injection, schedule: Q01DX009 (ip), vehicle: water) was 245 % of control, the T/C (dose: 0.5 mg/kg/injection, schedule: Q01DX005 (ip), vehicle: acid diluted with saline) was 270 % of control and the T/C (dose: 0.5 mg/kg/injection, schedule: Q01DX005 (iv), vehicle: acid diluted with saline) was 99 % of control. The T/C (dose: 0.5 mg/kg/injection, schedule: Q01DX009 (ip), vehicle: other) was 238 % of control and 333 % of control, the T/C (dose: 0.5 mg/kg/injection, schedule: Q04DX003 (ip), vehicle: saline) was 179 % of control and the T/C (dose: 0.54 mg/kg/injection, schedule: Q01DX009 (ip), vehicle: acid diluted with saline) was 234 % of control. For the same molecule, the T/C (dose: 0.54 mg/kg/injection, schedule: Q01DX009 (sc), vehicle: acid diluted with saline) was 153 % of control, the T/C (dose: 0.75 mg/kg/injection, schedule: Q04DX002 (ip), vehicle: acid diluted with saline) was 209 % of control and the T/C (dose: 0.75 mg/kg/injection, schedule: Q04DX003 (ip), vehicle: acid diluted with saline) was 123 % of control. For the same molecule, the T/C (dose: 0.78 mg/kg/injection, schedule: Q01DX009 (ip), vehicle: water) was 271 % of control, the T/C (dose: 0.78 mg/kg/injection, schedule: Q04DX003 (ip), vehicle: acid diluted with saline) was 409 % of control and the T/C (dose: 0.9 mg/kg/injection, schedule: Q01DX009 (ip), vehicle: acid diluted with saline) was 405 % of control. The T/C (dose: 0.9 mg/kg/injection, schedule: Q01DX009 (sc), vehicle: acid diluted with saline) was 216 % of control, the T/C (dose: 1.0 mg/kg/injection, schedule: Q01DX005 (ip), vehicle: acid diluted with saline) was 270 % of control and the T/C (dose: 1.0 mg/kg/injection, schedule: Q04DX003 (ip), vehicle: saline) was 151 % of control and 188 % of control and 208 % of control. The T/C (dose: 1.04 mg/kg/injection, schedule: Q04DX003 (ip), vehicle: acid diluted with saline) was 252 % of control, the T/C (dose: 1.04 mg/kg/injection, schedule: Q04DX003 (iv), vehicle: acid diluted with saline) was 162 % of control and the T/C (dose: 1.08 mg/kg/injection, schedule: Q01DX009 (ip), vehicle: acid diluted with saline) was 409 % of control. For the same molecule, the T/C (dose: 1.3 mg/kg/injection, schedule: Q04DX003 (ip), vehicle: acid diluted with saline) was 302 % of control, the T/C (dose: 1.5 mg/kg/injection, schedule: Q01DX009 (ip), vehicle: acid diluted with saline) was 405 % of control and the T/C (dose: 1.5 mg/kg/injection, schedule: Q01DX009 (sc), vehicle: acid diluted with saline) was 272 % of control. For the same molecule, the T/C (dose: 1.5 mg/kg/injection, schedule: Q04DX002 (ip), vehicle: acid diluted with saline) was 176 % of control and 201 % of control, the T/C (dose: 1.56 mg/kg/injection, schedule: Q01DX009 (ip), vehicle: water) was 218 % of control and the T/C (dose: 1.73 mg/kg/injection, schedule: Q04DX003 (ip), vehicle: acid diluted with saline) was 333 % of control. The T/C (dose: 1.73 mg/kg/injection, schedule: Q04DX003 (iv), vehicle: acid diluted with saline) was 227 % of control, the T/C (dose: 1.8 mg/kg/injection, schedule: Q01DX009 (ip), vehicle: acid diluted with saline) was 225 % of control and the T/C (dose: 2.0 mg/kg/injection, schedule: Q01DX009 (ip), vehicle: other) was 207 % of control. The T/C (dose: 2.0 mg/kg/injection, schedule: Q04DX003 (ip), vehicle: saline) was 164 % of control and 172 % of control and 207 % of control, the T/C (dose: 2.5 mg/kg/injection, schedule: Q01DX009 (ip), vehicle: acid diluted with saline) was 180 % of control and the T/C (dose: 2.88 mg/kg/injection, schedule: Q04DX003 (ip), vehicle: acid diluted with saline) was 333 % of control. The T/C (dose: 3.0 mg/kg/injection, schedule: Q01DX001 (ip), vehicle: acid diluted with saline) was 333 % of control, the T/C (dose: 3.0 mg/kg/injection, schedule: Q01DX009 (ip), vehicle: acid diluted with saline) was 102 % of control and the T/C (dose: 3.0 mg/kg/injection, schedule: Q04DX002 (ip), vehicle: acid diluted with saline) was 260 % of control and 288 % of control. For the same molecule, the T/C (dose: 3.24 mg/kg/injection, schedule: Q01DX001 (iv), vehicle: acid diluted with saline) was 178 % of control, the T/C (dose: 3.3 mg/kg/injection, schedule: Q01DX001 (ip), vehicle: acid diluted with saline) was 247 % of control and the T/C (dose: 4.0 mg/kg/injection, schedule: Q01DX001 (ip), vehicle: acid diluted with saline) was 187 % of control. The T/C (dose: 4.0 mg/kg/injection, schedule: Q01DX001 (iv), vehicle: acid diluted with saline) was 117 % of control, the T/C (dose: 4.0 mg/kg/injection, schedule: Q01DX009 (ip), vehicle: other) was 99 % of control and the T/C (dose: 4.0 mg/kg/injection, schedule: Q04DX003 (ip), vehicle: saline) was 166 % of control and 223 % of control and 233 % of control. For the same molecule, the T/C (dose: 4.4 mg/kg/injection, schedule: Q01DX001 (ip), vehicle: acid diluted with saline) was 229 % of control, the T/C (dose: 4.8 mg/kg/injection, schedule: Q04DX003 (ip), vehicle: acid diluted with saline) was 180 % of control and the T/C (dose: 5.0 mg/kg/injection, schedule: Q01DX001 (ip), vehicle: other) was 250 % of control. For the same molecule, the T/C (dose: 5.4 mg/kg/injection, schedule: Q01DX001 (ip), vehicle: acid diluted with saline) was 405 % of control, the T/C (dose: 5.4 mg/kg/injection, schedule: Q01DX001 (iv), vehicle: acid diluted with saline) was 270 % of control and the T/C (dose: 6.0 mg/kg/injection, schedule: Q04DX002 (ip), vehicle: acid diluted with saline) was 192 % of control and 260 % of control. For the same molecule, the T/C (dose: 6.7 mg/kg/injection, schedule: Q01DX001 (ip), vehicle: acid diluted with saline) was 293 % of control, the T/C (dose: 8.0 mg/kg/injection, schedule: Q01DX001 (ip), vehicle: acid diluted with saline) was 171 % of control and the T/C (dose: 8.0 mg/kg/injection, schedule: Q01DX001 (iv), vehicle: acid diluted with saline) was 198 % of control. The T/C (dose: 8.0 mg/kg/injection, schedule: Q04DX003 (ip), vehicle: acid diluted with saline) was 107 % of control, the T/C (dose: 8.0 mg/kg/injection, schedule: Q04DX003 (ip), vehicle: saline) was 164 % of control and 232 % of control and the T/C (dose: 8.0 mg/kg/injection, schedule: Q04DX003 (iv), vehicle: acid diluted with saline) was 99 % of control. For the same molecule, the T/C (dose: 9.0 mg/kg/injection, schedule: Q01DX001 (ip), vehicle: acid diluted with saline) was 261 % of control, the T/C (dose: 9.0 mg/kg/injection, schedule: Q01DX001 (iv), vehicle: acid diluted with saline) was 405 % of control and the T/C (dose: 10.0 mg/kg/injection, schedule: Q04DX003 (ip), vehicle: acid diluted with saline) was 180 % of control. For the same molecule, the T/C (dose: 12.0 mg/kg/injection, schedule: Q04DX002 (ip), vehicle: acid diluted with saline) was 118 % of control, the T/C (dose: 15.0 mg/kg/injection, schedule: Q01DX001 (ip), vehicle: other) was 302 % of control and the T/C (dose: 15.0 mg/kg/injection, schedule: Q01DX001 (iv), vehicle: acid diluted with saline) was 405 % of control. For the same molecule, the T/C (dose: 16.0 mg/kg/injection, schedule: Q01DX001 (ip), vehicle: acid diluted with saline) was 173 % of control, the T/C (dose: 16.0 mg/kg/injection, schedule: Q01DX001 (iv), vehicle: acid diluted with saline) was 101 % of control and the T/C (dose: 16.0 mg/kg/injection, schedule: Q04DX003 (ip), vehicle: saline) was 101 % of control and 117 % of control. The T/C (dose: 25.0 mg/kg/injection, schedule: Q01DX001 (ip), vehicle: acid diluted with saline) was 225 % of control, the T/C (dose: 32.0 mg/kg/injection, schedule: Q01DX001 (ip), vehicle: acid diluted with saline) was 270 % of control and the T/C (dose: 32.0 mg/kg/injection, schedule: Q04DX003 (ip), vehicle: saline) was 100 % of control. The T/C (dose: 64.0 mg/kg/injection, schedule: Q01DX001 (ip), vehicle: acid diluted with saline) was 270 % of control, the T/C (dose: 7.0 micrograms/kg/injection, schedule: Q04DX003 (ip), vehicle: saline) was 107 % of control and the T/C (dose: 15.0 micrograms/kg/injection, schedule: Q04DX003 (ip), vehicle: saline) was 107 % of control. The T/C (dose: 31.0 micrograms/kg/injection, schedule: Q04DX003 (ip), vehicle: saline) was 120 % of control.
